Assay type in all cases: functional, cell-based
For experiment [1], the system named is COLO 205. Kind of experiment: Cytotoxicity against human COLO205 cells after 24 hrs by MTT assay. The note with it: COLO 205, 24 h.
Experiment [2] concerns HL-60. The experiment can be described thus: Cytotoxicity against human HL60 cells after 24 hrs by MTT assay. The note with it: HL-60, 24 h.
In experiment [3] the test system is THP-1. The experiment can be described thus: Cytotoxicity against human THP1 cells after 24 hrs by MTT assay. Conditions: THP-1, 24 h. In general terms: Formazan colour is commonly taken as a measure of viable cells.
Experiment [4] concerns U-937. Kind of experiment: Cytotoxicity against human U937 cells after 24 hrs by MTT assay. The note with it: U-937, 24 h.
The subject of experiment [5] is MCF7. The experiment can be described thus: Cytotoxicity against human MCF7 cells after 24 hrs by MTT assay. The note with it: MCF7, 24 h.

As for `CCN1CCN(CCCn2nc(-c3ccc(OC)c(OC)c3)[nH]c2=S)CC1`, the IC50 in experiment [1], in experiment [2], in experiment [3], in experiment [4] and in experiment [5] was over 300 µM throughout.
Turning to `CC(C)(C)c1ccc(-c2nn(CCCN3CCN(c4ccccc4)CC3)c(=S)[nH]2)cc1`, the 50% inhibitory concentration (IC50) is over 300 µM in experiment [1]; over 300 µM in experiment [2]; 147 µM in experiment [3]; 88.9 µM in experiment [4]; over 300 µM in experiment [5].
Turning to `Clc1cccc(-c2nnc(SCCCN3CCN(c4ncccn4)CC3)[nH]2)c1`, the half-maximal inhibitory concentration (IC50) in experiment [1] was over 300 µM; in experiment [2] it was 18.5 µM; in experiment [3], over 300 µM; in experiment [4], 49.1 µM; in experiment [5] it was over 300 µM.
Turning to `CCN1CCN(CCCSc2nnc(-c3ccc(C)cc3)[nH]2)CC1`, the half-inhibitory concentration (IC50) in experiment [1], in experiment [2], in experiment [3], in experiment [4] and in experiment [5] was over 300 µM throughout.
Turning to `Cc1cccc(-c2nnc(SCCCN3CCN(c4ccccn4)CC3)[nH]2)c1`, the IC50 in experiment [1] is over 300 µM; in experiment [2], 29.4 µM; in experiment [3] it was over 300 µM; in experiment [4], 52.3 µM; in experiment [5], over 300 µM.
For the compound `S=c1[nH]c(-c2ccc(Cl)cc2)nn1CCCN1CCN(c2cccc(Cl)c2)CC1`, the IC50 is over 300 µM in experiment [1]; 6.67 µM in experiment [2]; over 300 µM in experiment [3]; 28.2 µM in experiment [4]; over 300 µM in experiment [5].
In the case of `Cc1ccc(-c2nn(CCCN3CCN(c4cccc(Cl)c4)CC3)c(=S)[nH]2)cc1`, the concentration for half-maximal inhibition (IC50) in experiment [1], in experiment [2], in experiment [3], in experiment [4] and in experiment [5] was over 300 µM each time.
With `Fc1ccc(-c2nnc(SCCCN3CCN(Cc4ccccc4)CC3)[nH]2)cc1`, the IC50 in experiment [1] is 181 µM; in experiment [2], over 300 µM; in experiment [3], 255 µM; in experiment [4], 124 µM; in experiment [5] it was 184 µM.
For the compound `CC(C)(C)c1ccc(-c2nn(CCCN3CCN(c4cccc(Cl)c4)CC3)c(=S)[nH]2)cc1`, the IC50 in experiment [1], in experiment [2], in experiment [3], in experiment [4] and in experiment [5] was over 300 µM throughout.
Turning to `COc1ccc(-c2nn(CCCN3CCN(c4ccccn4)CC3)c(=S)[nH]2)cc1`, the IC50 in experiment [1] is over 300 µM; in experiment [2] it was 115 µM; in experiment [3], over 300 µM; in experiment [4], over 300 µM; in experiment [5], over 300 µM.
Take `Fc1ccc(-c2nn(CCCN3CCN(Cc4ccccc4)CC3)c(=S)[nH]2)cc1`: the IC50 was 111 µM in experiment [1]; over 300 µM in experiment [2]; 160 µM in experiment [3]; over 300 µM in experiment [4]; 128 µM in experiment [5].
Consider `CC(C)(C)c1ccc(-c2nnc(SCCCN3CCN(c4ccccc4)CC3)[nH]2)cc1`, for which the IC50 in experiment [1] was over 300 µM; in experiment [2] it was over 300 µM; in experiment [3], 97.6 µM; in experiment [4] it was 49.3 µM; in experiment [5], over 300 µM.
Take `COc1ccc(-c2nn(CCCN3CCOCC3)c(=S)[nH]2)cc1OC`: the IC50 in experiment [1], in experiment [2], in experiment [3], in experiment [4] and in experiment [5] was over 300 µM each time.
Turning to `c1ccc(Cc2nnc(SCCCN3CCN(c4ccccn4)CC3)[nH]2)cc1`, the 50% inhibitory concentration (IC50) was over 300 µM in experiment [1]; over 300 µM in experiment [2]; over 300 µM in experiment [3]; 163 µM in experiment [4]; over 300 µM in experiment [5].
Take `Clc1ccccc1-c1nnc(SCCCN2CCN(c3ccccn3)CC2)[nH]1`: the half-inhibitory concentration (IC50) in experiment [1], in experiment [2], in experiment [3], in experiment [4] and in experiment [5] was over 300 µM each time.
On to `COc1cc([C@@H]2c3cc4c(cc3[C@@H](O[C@@H]3O[C@@H]5CO[C@@H](C)O[C@H]5[C@H](O)[C@H]3O)[C@H]3COC(=O)[C@H]23)OCO4)cc(OC)c1O` [ETOPOSIDE], for which the concentration for half-maximal inhibition (IC50) turned out to be 1.84 µM in experiment [2], 10.4 µM in experiment [4] and 29.5 µM in experiment [5].
As for `CCN1CCN(CCCSc2nnc(-c3ccccc3Cl)[nH]2)CC1`, the IC50 in experiment [1], in experiment [2], in experiment [3], in experiment [4] and in experiment [5] was over 300 µM throughout.
For `Cc1ccc(-c2nnc(SCCCN3CCN(c4cccc(Cl)c4)CC3)[nH]2)cc1`, the 50% inhibitory concentration (IC50) in experiment [1] is 139 µM; in experiment [2], over 300 µM; in experiment [3] it was over 300 µM; in experiment [4] it was 257 µM; in experiment [5], over 300 µM.
`Clc1ccc(-c2nnc(SCCCN3CCN(c4ncccn4)CC3)[nH]2)cc1`: the concentration for half-maximal inhibition (IC50) in experiment [1] was over 300 µM; in experiment [2], 105 µM; in experiment [3] it was over 300 µM; in experiment [4] it was 102 µM; in experiment [5], over 300 µM.
For the compound `Cc1cccc(-c2nnc(SCCCN3CCN(c4ccccc4)CC3)[nH]2)c1`, the 50% inhibitory concentration (IC50) was over 300 µM in experiment [1]; over 300 µM in experiment [2]; 248 µM in experiment [3]; over 300 µM in experiment [4]; over 300 µM in experiment [5].
Turning to `CC(C)(C)c1ccc(-c2nnc(SCCCN3CCOCC3)[nH]2)cc1`, the half-maximal inhibitory concentration (IC50) in experiment [1] is 155 µM; in experiment [2], over 300 µM; in experiment [3] it was over 300 µM; in experiment [4], 156 µM; in experiment [5], 287 µM.
For the compound `Clc1ccc(-c2nnc(SCCCN3CCN(c4cccc(Cl)c4)CC3)[nH]2)cc1`, the IC50 in experiment [1], in experiment [2], in experiment [3], in experiment [4] and in experiment [5] was over 300 µM each time.

By IC50 is commonly meant the point on the concentration scale where inhibition reaches its midpoint.
